This is an account of results in patent US20150087673A1, “METHODS FOR USING AND BIOMARKERS FOR AMPK-ACTIVATING COMPOUNDS” (RIGEL PHARMACEUTICALS, INC., priority 2013, published 2015).

pEC50: −log10 of the molar value.

The experiment relates to AMPK. The experiment in a line: AMPK activation assay (enzyme-linked immunosorbent assay). It is filed as cell-based. An outline of the steps:
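Test compounds were added, and kinase activation was then detected by immunoassay following established kit procedures.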
As to `N#Cc1ccc(O[C@H]2CC[C@@H](NC(=O)c3ccc(C(=O)N4CCC(C(=O)c5ccc(N6CCCC6)cc5)CC4)nc3)CC2)cc1` [Compound 442, N-((cis)-4-(4-cyanophenoxy)cyclohexyl)-6-(4-(4-(pyrrolidin-1-yl)benzoyl)piperidine-1-carbonyl)nicotinamide], the pEC50 (as a rule, the negative decadic logarithm of the EC50, by convention in mol/L) was more than 6.30.
Next, `N#Cc1ccc(Oc2ccc(NC(=O)c3ccc(C(=O)N4CCC(S(=O)(=O)c5ccc(F)cc5)CC4)nc3)cn2)cc1` [Compound 472, N-(6-(4-cyanophenoxy)pyridin-3-yl)-6-(4-(4-fluorophenylsulfonyl)piperidine-1-carbonyl)nicotinamide]: 5.30 to 6.00.
Next, `N#Cc1ccc(OC2CCN(c3ccc(C(=O)N4CCN(Cc5ccc(F)cc5)CC4)cn3)CC2)cc1` [Compound 188, 4-(1-(5-(4-(4-fluorobenzyl)piperazine-1-carbonyl)pyridin-2-yl)piperidin-4-yloxy)benzonitrile]: 6.00 to 6.30; `CS(=O)(=O)c1ccc(C(=O)C2CCN(C(=O)c3ccc(C(=O)Nc4ccc(Oc5ccc(F)cc5)nc4)nc3)CC2)cc1` [Compound 232, N-(6-(4-fluorophenoxy)pyridin-3-yl)-5-(4-(4-(methylsulfonyl)benzoyl)piperidine-1-carbonyl)picolinamide]: more than 6.30; `O=C(NC1CCN(Cc2ccc(F)cc2)CC1)c1ccc(C(=O)N2CCC(Oc3cccc(NC(=O)C4CC4)c3)CC2)nc1` [Compound 432, 6-(4-(3-(cyclopropanecarboxamido)phenoxy)piperidine-1-carbonyl)-N-(1-(4-fluorobenzyl)piperidin-4-yl)nicotinamide]: 6.00 to 6.30.
In turn, `N#Cc1ccc(CN2CCC(NC(=O)c3ccc(C(=O)N4CCC(Oc5ccc(C(=O)C6CC6)cc5)CC4)nc3)CC2)cc1` [Compound 456, N-(1-(4-cyanobenzyl)piperidin-4-yl)-6-(4-(4-(cyclopropanecarbonyl)phenoxy)piperidine-1-carbonyl)nicotinamide] showed a pEC50 of more than 6.30.
`O=C(c1ccc(Nc2ccc(-c3ccccc3)cc2)nc1)N1CCN(Cc2ccc(F)cc2)CC1` [Compound 37, (6-(4-phenylphenylamino)pyridin-3-yl)(4-(4-fluorobenzyl)piperazin-1-yl)methanone] had a pEC50 of 5.00 to 5.30.
Compound `CS(=O)(=O)c1ccc(OC2CCN(C(=O)c3ccc(C(=O)NC4CCN(Cc5ccc(F)cc5)CC4)cn3)CC2)cc1` [Compound 396, N-(1-(4-fluorobenzyl)piperidin-4-yl)-6-(4-(4-(methylsulfonyl)phenoxy)piperidine-1-carbonyl)nicotinamide] had a pEC50 of 5.30 to 6.00.
The value for `O=C(NC1CCN(Cc2ccc(F)cc2)CC1)c1ccc(C(=O)N2CCC(C(=O)c3ccc(N4CCCC4)cc3)CC2)nc1` [Compound 381, N-(1-(4-fluorobenzyl)piperidin-4-yl)-6-(4-(4-(pyrrolidin-1-yl)benzoyl)piperidine-1-carbonyl)nicotinamide] was more than 6.30; that for `CS(=O)(=O)c1ccc(OC2CCN(C(=O)c3ccc(C(=O)NC4CCN(Cc5ccc(N6CCCC6)cc5)CC4)cn3)CC2)cc1` [Compound 230, 6-(4-(4-(methylsulfonyl)phenoxy)piperidine-1-carbonyl)-N-(1-(4-(pyrrolidin-1-yl)benzyl)piperidin-4-yl)nicotinamide] was 6.00 to 6.30; that for `N#Cc1ccc(CN2CCC3(CC2)CCN(c2ccc(C(=O)N4CCN(Cc5ccc(F)cc5)CC4)cn2)C3)cc1` [Compound 31, 4-((2-(5-(4-(4-fluorobenzyl)piperazine-1-carbonyl)pyridin-2-yl)-2,8-diazaspiro[4.5]decan-8-yl)methyl)benzonitrile] was more than 6.30.
Take `CS(=O)(=O)c1ccc(OC2CCN(C(=O)c3ccc(C(=O)NC4CCN(Cc5ccc(N6CCCC6)cc5)CC4)nc3)CC2)cc1` [Compound 208, 5-(4-(4-(methylsulfonyl)phenoxy)piperidine-1-carbonyl)-N-(1-(4-(pyrrolidin-1-yl)benzyl)piperidin-4-yl)picolinamide]: the pEC50 was more than 6.30.
Turning to `COc1ccc(C(=O)C2CCN(C(=O)c3ccc(C(=O)Nc4ccc(Oc5ccc(S(C)(=O)=O)cc5)nc4)cn3)CC2)cc1` [Compound 465, 6-(4-(4-methoxybenzoyl)piperidine-1-carbonyl)-N-(6-(4-(methylsulfonyl)phenoxy)pyridin-3-yl)nicotinamide], the pEC50 is more than 6.30.
Next, `N#Cc1ccc(CN2CCC(NC(=O)c3ccc(C(=O)N4CCC(Oc5cccnc5)CC4)cn3)CC2)cc1` [Compound 283, N-(1-(4-cyanobenzyl)piperidin-4-yl)-5-(4-(pyridin-3-yloxy)piperidine-1-carbonyl)picolinamide]: more than 6.30.
Next, `CC(C)(C)C(=O)N1CCN(C(=O)c2ccc(C(=O)NC3CCN(Cc4ccc(C#N)cc4)CC3)nc2)CC1` [Compound 81, N-(1-(4-cyanobenzyl)piperidin-4-yl)-5-(4-pivaloylpiperazine-1-carbonyl)picolinamide]: 6.00 to 6.30; `COc1ccc(C(=O)C2CCN(C(=O)c3ccc(C(=O)NC4CCN(Cc5ccc(C(=O)N(C)C)cc5)CC4)cn3)CC2)cc1` [Compound 490, N-(1-(4-(dimethylcarbamoyl)benzyl)piperidin-4-yl)-6-(4-(4-methoxybenzoyl)piperidine-1-carbonyl)nicotinamide]: 5.30 to 6.00; `CC(C)N1CCN(C(=O)c2ccc(C(=O)N3CCN(CCc4ccccc4)CC3)nc2)CC1` [Compound 91, (4-isopropylpiperazin-1-yl)(6-(4-phenethylpiperazine-1-carbonyl)pyridin-3-yl)methanone]: less than 5.00.
The value for `COc1ccc(CN2CCC(NC(=O)c3ccc(C(=O)N4CCC(Oc5ccc(F)cc5F)CC4)nc3)CC2)cc1` [Compound 344, 6-(4-(2,4-difluorophenoxy)piperidine-1-carbonyl)-N-(1-(4-methoxybenzyl)piperidin-4-yl)nicotinamide] was more than 6.30; that for `O=C(Nc1ccc(C(=O)N2CCN(Cc3ccc(F)cc3)CC2)cn1)c1ccc(-c2ccccc2)cc1` [Compound 170, N-(5-(4-(4-fluorobenzyl)piperazine-1-carbonyl)pyridin-2-yl)biphenyl-4-carboxamide] was less than 5.00.
For `COc1ccc(OC2CCCN(C(=O)c3ccc(C(=O)NC4CCN(Cc5ccc(C#N)cc5)CC4)nc3)C2)cc1` (centres unmarked) [Compound 274, N-(1-(4-cyanobenzyl)piperidin-4-yl)-5-(3-(4-methoxyphenoxy)piperidine-1-carbonyl)picolinamide], the pEC50 was less than 5.00.
Next, `CC(C)N1CCN(C(=O)c2ccc(C(=O)NC3CCN(Cc4ccc(C#N)cc4)CC3)nc2)CC1` [Compound 84, N-(1-(4-cyanobenzyl)piperidin-4-yl)-5-(4-isopropylpiperazine-1-carbonyl)picolinamide]: 5.30 to 6.00; `CCOC(=O)c1ccc(OC2CCN(C(=O)c3ccc(C(=O)NC4CCN(Cc5ccc(C#N)cc5)CC4)nc3)CC2)cc1` [Compound 284, ethyl 4-(1-(6-(1-(4-cyanobenzyl)piperidin-4-ylcarbamoyl)nicotinoyl)piperidin-4-yloxy)benzoate]: more than 6.30.
Next, `O=C(NC1CCN(Cc2ccc(N3CCCC3)cc2)CC1)c1ccc(C(=O)N2CCC(C(=O)c3ccc(N4CCCC4)cc3)CC2)nc1` [Compound 444, 6-(4-(4-(pyrrolidin-1-yl)benzoyl)piperidine-1-carbonyl)-N-(1-(4-(pyrrolidin-1-yl)benzyl)piperidin-4-yl)nicotinamide]: more than 6.30.
